Measurements reported in US11110158B2, “Prostate-associated antigens and vaccine-based immunotherapy regimens” (Pfizer Inc., priority 2012, dated 2021).

Key:
[1] = tested on: LNCaP; test: Antibody-dependent cell-mediated cytotoxicity, chromium 51 release, human PBMC effectors; assay type: cell-based; conditions: target LNCaP (PSMA+); plasma 1:50 or control mAb
Description: (§1) An Indian rhesus macaque was immunized with a nucleic acid encoding a human PSMA modified antigen delivered by adenovirus (1e11 V.P. injected intramuscularly) followed by 2 PMED immunizations (8 actuations/immunization, 4 actuations per each right and left side of the lower abdomen) with 8 and 6 week intervals respectively. The animal also received intradermal injections of 3 mg of CpG (PF-03512676) in proximity to each inguinal draining lymph node at the time of the second PMED immunization. The antibody dependent cell-mediated cytotoxicity was determined from the plasma collected from the blood before any immunizations (pre-immune plasma) and 8 days after the last PMED immunization (immune plasma).
(§2) Antibody-dependent cell-mediated cytotoxicity was determined using the standard chromium 51 release assay. Human prostate cancer cell lines LNCaP and PC3 were used as target cells. Freshly isolated human PBMC cells were used as effector cells. Effectors to target cells were set at 30:1. Briefly, for one labeling reaction, 1.5×10^6 target cells in 200 ul were incubated with 200 μCi ^51Cr (37° C., 5% CO2 for 1 hour).

[2] = tested on: PC3; test: as above; assay type: cell-based; conditions: target PC3 (PSMA negative); plasma 1:50 or control mAb
Description: as §1, §2

[3] = tested on: rHER2; test: IFNγ ELISPOT, rHER2 DNA vaccine with CpG7909 or anti-CD40 in BALB/c mice; assay type: in vivo, mouse; conditions: FIG. 40; intradermal after PMED; CpG7909 50 g or anti-CD40 100 ug as printed; versus control antibodies; 7 days after PMED
Description: The effect of local administration of immune modulators on the magnitude and quality of antigen specific immune responses induced by a cancer was investigated in BALB/c mice, in which the immune response was assessed by measuring rHER2 specific T cell responses using the IFNγ ELISPOT assay or intracellular cytokine staining assay. Briefly, 4 to 6 female BALB/c mice per group as indicated were immunized with DNA plasmid expression constructs encoding rHER2 antigen sequences (SEQ ID NO:54) by PMED delivery system. […] Antigen specific T cell responses were measured by IFNγ […]ELISPOT or intracellular cytokine staining assay according to the procedure described below.
Briefly, each mouse per treatment group (n=4) was immunized with DNA plasmid expression constructs encoding rHER2 antigen sequences (SEQ ID NO:54) by PMED immediately followed by either 100 ug of control rat IgG monoclonal antibody (Bioxcell #BE0089: control mAb) or 50 g CpG7909 or 100 ug of anti-CD40 monoclonal antibody (Bioxcell #BE0016-2: a-CD40 mAb) as indicated. The antigen specific immune responses were measured by IFNγ ELISPOT assay from 5e5 splenocytes mixed with control or rHer-2 specific p66 peptides at 10 µg/ml concentration, 7 days after the PMED actuation. […]

[4] = tested on: rHER2; test: Intracellular cytokine staining, rHER2 DNA vaccine with CpG 7909 or anti-CD40 in BALB/c mice; assay type: in vivo, rat; conditions: FIGS. 41A, 41B; CpG 7909 intradermal after both PMED immunizations, versus PBS
Description: The effect of local administration of immune modulators on the magnitude and quality of antigen specific immune responses induced by a cancer was investigated in BALB/c mice, in which the immune response was assessed by measuring rHER2 specific T cell responses using the IFNγ ELISPOT assay or intracellular cytokine staining assay. Briefly, 4 to 6 female BALB/c mice per group as indicated were immunized with DNA plasmid expression constructs encoding rHER2 antigen sequences (SEQ ID NO:54) by PMED delivery system. The immune modulators, CpG7909 (PF-03512676) and anti-CD40 monoclonal agonistic antibody, were administered locally by intradermal injections in proximity to the vaccine draining inguinal lymph node subsequently after the PMED actuations. Antigen specific T cell responses were measured by IFNγ […]ELISPOT or intracellular cytokine staining assay according to the procedure described below.
The rHer-2 specific polyfunctional (multi-cytokine positive) T cell immune responses were measured from splenocytes or PBMCs isolated from individual animals by ICS assay. […] The total number of antigen specific single, double or triple cytokine positive T cells per total spleen of each animal is calculated by subtracting the rHer-2 specific responses to the irrelevant peptide HBV from the vaccine specific responses and normalized to the total number of splenocytes isolated from the spleen.

[5] = tested on: human PSMA; test: IFNγ ELISPOT of PBMCs, PSMA DNA electroporation with or without CpG in Chinese cynomolgus macaques, human PSMA peptide pools; assay type: in vivo, cynomolgus macaque; conditions: for animals that failed to produce high responses: intramuscular right after electroporation on day 0; for animals with modestly higher total response to the PSMA peptides: 3 days after DNA electroporation, cynomolgus
Description: (§3) Six groups of Chinese cynomolgus macaques, six (#1 to 6) per each test group, were immunized with a plasmid DNA encoding the human PSMA modified antigen (amino acids 15-750 of SEQ ID NO:1) delivered by electroporation. Briefly, all animals received bilateral intramuscular injections of 5 mg of plasmid DNA followed by electroporation (DNA EP) on day 0. Subsequently right after the electroporation, group 2 received bilateral intramuscular injections of 2 mg of CpG mixed with 1 mg Alum in proximity to the DNA injection sites. Group 3 and 4 received bilateral intramuscular injections of 2 mg of CpG delivered without alum in proximity to the DNA injection sites either on day 0 or day 3, respectively. Group 5 received 2 mg of bilateral intradermal injections of CpG delivered in proximity to the vaccine draining inguinal nodes on day 3. Group 6 received bilateral injections of 200 μg of CpG mixed with the DNA solution which was co-electroporated into the muscle on day 0.
Peripheral blood samples were collected from each animal fifteen days after the DNA immunization. Peripheral blood mononuclear cells (PBMCs) were isolated from the blood samples and were subjected to an IFNγELISPOT assay to measure the PSMA specific T cell responses. Briefly, 4e5 PBMCs from individual animals were plated per well with pools of PSMA specific peptides or nonspecific control peptides (human HER2 peptide pool) each at 2 ug/ml in IFNγELISPOT plates. The plates were incubated for 16 hrs at 37° C. and 5% CO2 and washed and developed after incubation as per manufacturer's instruction. The number of IFNγ spot forming cells (SFC) were counted by CTL reader. Each condition was performed in duplicates. […] ND indicates not determined.

[6] = tested on: rhesus PSMA; test: IFNγ ELISPOT of PBMCs, PSMA DNA electroporation with or without CpG in Chinese cynomolgus macaques, rhesus PSMA peptide pools; assay type: in vivo; conditions: group 6: 200 μg CpG co-electroporated, compared to animals that did not receive CpG (group 1); P<0.05
Description: as §3
Peripheral blood samples were collected from each animal fifteen days after the DNA immunization. Peripheral blood mononuclear cells (PBMCs) were isolated from the blood samples and were subjected to an IFNγELISPOT assay to measure the PSMA specific T cell responses. […] The number of IFNγ spot forming cells (SFC) were counted by CTL reader. […] ND indicates not determined.

[7] = cited from earlier work

Row | Substance | Percent specific lysis at E:T of 30:1 [1] | Percent specific lysis at E:T of 30:1 [2] | magnitude of antigen specific immune responses induced by rHer-2 DNA (IFNγ ELISPOT, p66 peptide) [3] | rHer-2 specific multi-cytokine positive CD8 and CD4 T cell responses [4] | animals that failed to produce high responses ([5]; group 2: CpG 2 mg mixed with 1 mg Alum) | animals that failed to produce high responses ([5]; group 3: CpG 2 mg without alum) | animals with modestly higher total response to the PSMA peptides ([5]; group 4: CpG 2 mg bilateral intramuscular) | animals with modestly higher total response to the PSMA peptides ([5]; group 5: CpG 2 mg bilateral intradermal) | animals with higher net responses ([5]; group 6: 200 μg CpG co-electroporated with the DNA solution into the muscle) | response to peptide pool H1 ([5]; group 6: 200 μg CpG co-electroporated, compared to animals that did not receive CpG (group 1), P<0.05) | response to peptide pool R1 [6] | single intravenous dose well tolerated with no clinical effects and no significant toxicity ([7]; patients with previously treated chronic lymphocytic leukemia) | dose limiting toxicity ([7]; single dose subcutaneous) | maximum tolerated dose (MTD) ([7]; single dose subcutaneous)
1 | Rituxan: monoclonal against B cell antigen (CD20), negative control antibody | 8.99% | 0% | – | – | – | – | – | – | – | – | – | – | – | –
2 | 5′ TCGTCGTTTTGTCGTTTTGTCGTT3′ [CpG 7909] | – | – | significantly enhanced the magnitude of antigen specific immune responses | significant increase | 4/6 | 3/6 | 3/6 | 2/6 | 4/6 | statistically higher response | statistically higher response | up to 1.05 mg/kg | myalgia and constitutional effects | 0.45 mg/kg
